We go through twelve compounds from patent US20110136762A1, “FUNGICIDAL PYRIDAZINES” (E.I. Du Pont de Nemours and Company, priority 2008, published 2011).

Structures are written as SMILES.

Type in all cases: in vivo
The test system of assay [1] is Alternaria solani. Description: Test E: tomato early blight, preventive spray on tomato seedlings, visual disease rating. The settings on record: 100 = 100% disease control, 0 = no disease control relative to controls; for pest or weed control at 200 ppm / pest or weed control at 40 ppm: Alternaria solani; for pest or weed control at 200 ppm / Test E rating (disease control, tomato early blight): 200 ppm; for pest or weed control at 40 ppm: 40 ppm (marked *). From the text:
General protocol for preparing test suspensions for Tests A-F: […] The resulting test suspensions were then used in Tests A-F. The test suspensions were sprayed to the point of run-off on the test plants. All results are for 200 ppm (equivalent to a rate of 500 g/ha) except where followed by “*” which indicates 40 ppm. The test suspension was sprayed to the point of run-off on tomato seedlings. […] A dash (-) indicates no test results. All results are for 200 ppm except where followed by “*”, which indicates 40 ppm.

The subject of assay [2] is Erysiphe graminis. Description: Test A: wheat powdery mildew, preventive spray on wheat seedlings, visual disease rating. The note with it: 100 = 100% disease control, 0 = no disease control relative to controls; for pest or weed control at 200 ppm / pest or weed control at 40 ppm: Blumeria graminis, 192 h; for pest or weed control at 200 ppm / Test A rating (disease control, wheat powdery mildew): 200 ppm; for pest or weed control at 40 ppm: 40 ppm (marked *). From the text:
General protocol for preparing test suspensions for Tests A-F: […] The resulting test suspensions were then used in Tests A-F. The test suspensions were sprayed to the point of run-off on the test plants. All results are for 200 ppm (equivalent to a rate of 500 g/ha) except where followed by “*” which indicates 40 ppm. The test suspension was sprayed to the point of run-off on wheat seedlings. The following day the seedlings were inoculated with a spore dust of Erysiphe graminis, (the causal agent of wheat powdery mildew) and incubated in a growth chamber at 20° C. for 8 days, after which time visual disease ratings were made. […] A dash (-) indicates no test results. All results are for 200 ppm except where followed by “*”, which indicates 40 ppm.

Assay [3] deals with Septoria tritici. Kind of assay: Test C: wheat leaf blotch, preventive spray on wheat seedlings, visual disease rating. The note with it: 100 = 100% disease control, 0 = no disease control relative to controls; for pest or weed control at 200 ppm / pest or weed control at 40 ppm: Zymoseptoria tritici, 504 h; for pest or weed control at 200 ppm / Test C rating (disease control, wheat leaf blotch): 200 ppm; for pest or weed control at 40 ppm: 40 ppm (marked *). The source says:
General protocol for preparing test suspensions for Tests A-F: […] The resulting test suspensions were then used in Tests A-F. The test suspensions were sprayed to the point of run-off on the test plants. All results are for 200 ppm (equivalent to a rate of 500 g/ha) except where followed by “*” which indicates 40 ppm. The test suspension was sprayed to the point of run-off on wheat seedlings. The following day the seedlings were inoculated with a spore suspension of Septoria tritici (the causal agent of wheat leaf blotch) and incubated in saturated atmosphere at 20° C. for 48 h, and moved to a growth chamber at 20° C. for 19 additional days, after which time visual disease ratings were made. […] A dash (-) indicates no test results. All results are for 200 ppm except where followed by “*”, which indicates 40 ppm.

Assay [4] concerns Botrytis cinerea. Description: Test F: tomato Botrytis, preventive spray on tomato seedlings, visual disease rating. The settings on record: 100 = 100% disease control, 0 = no disease control relative to controls; for pest or weed control at 200 ppm / pest or weed control at 40 ppm: Botrytis cinerea; for pest or weed control at 200 ppm / Test F rating (disease control, tomato Botrytis): 200 ppm; for pest or weed control at 40 ppm: 40 ppm (marked *). The source says: General protocol for preparing test suspensions for Tests A-F: […] The resulting test suspensions were then used in Tests A-F. The test suspensions were sprayed to the point of run-off on the test plants. All results are for 200 ppm (equivalent to a rate of 500 g/ha) except where followed by “*” which indicates 40 ppm. The test suspension was sprayed to the point of run-off on tomato seedlings. The following day the seedlings were inoculated with a spore suspension of Botrytis cinerea (the causal agent of tomato Botrytis) and incubated in saturated atmosphere at 20° C. for 48 h, and then moved to a growth chamber at 24° C. for 3 days, after which time visual disease ratings were made. […] A dash (-) indicates no test results. All results are for 200 ppm except where followed by “*”, which indicates 40 ppm.

The subject of assay [5] is Septoria nodorum. Description: Test D: wheat glume blotch, preventive spray on wheat seedlings, visual disease rating. The settings on record: 100 = 100% disease control, 0 = no disease control relative to controls; for pest or weed control at 200 ppm / pest or weed control at 40 ppm: Parastagonospora nodorum; for pest or weed control at 200 ppm / Test D rating (disease control, wheat glume blotch): 200 ppm; for pest or weed control at 40 ppm: 40 ppm (marked *). From the text:
General protocol for preparing test suspensions for Tests A-F: […] The resulting test suspensions were then used in Tests A-F. The test suspensions were sprayed to the point of run-off on the test plants. All results are for 200 ppm (equivalent to a rate of 500 g/ha) except where followed by “*” which indicates 40 ppm. The test suspension was sprayed to the point of run-off on wheat seedlings. The following day the seedlings were inoculated with a spore suspension of Septoria nodorum (the causal agent of wheat glume blotch) and incubated in a saturated atmosphere at 20° C. for 48 h, and then moved to a growth chamber at 20° C. for 7 days, after which time visual disease ratings were made. […] A dash (-) indicates no test results. All results are for 200 ppm except where followed by “*”, which indicates 40 ppm.

In assay [6] the test system is Puccinia recondita f. sp. tritici. Kind of assay: Test B: wheat leaf rust, preventive spray on wheat seedlings, visual disease rating. The note with it: 100 = 100% disease control, 0 = no disease control relative to controls; for pest or weed control at 200 ppm / pest or weed control at 40 ppm: 192 h; for pest or weed control at 200 ppm / Test B rating (disease control, wheat leaf rust): 200 ppm; for pest or weed control at 40 ppm: 40 ppm (marked *). The source says:
General protocol for preparing test suspensions for Tests A-F: […] The resulting test suspensions were then used in Tests A-F. The test suspensions were sprayed to the point of run-off on the test plants. All results are for 200 ppm (equivalent to a rate of 500 g/ha) except where followed by “*” which indicates 40 ppm. The test suspension was sprayed to the point of run-off on wheat seedlings. The following day the seedlings were inoculated with a spore suspension of Puccinia recondita f. sp. tritici (the causal agent of wheat leaf rust) and incubated in a saturated atmosphere at 20° C. for 24 h, and then moved to a growth chamber at 20° C. for 7 days, after which time visual disease ratings were made. […] A dash (-) indicates no test results. All results are for 200 ppm except where followed by “*”, which indicates 40 ppm.

Take `COc1cc(OC)cc(-c2c(-c3ccccc3F)nnc(OC)c2-c2c(F)cc(F)cc2F)c1` [Compound 26, 4-(3,5-dimethoxyphenyl)-3-(2-fluorophenyl)-6-methoxy-5-(2,4,6-trifluorophenyl)pyridazine]: the pest or weed control at 200 ppm stood at 95% in assay [1]; 90% in assay [2]; 99% in assay [3]; 99% in assay [4]; 100% in assay [5]; 100% in assay [6].
As to `COc1ccc(-c2c(C)nnc(-c3ccc(F)cc3F)c2-c2cc(OC)cc(OC)c2)cc1` [Compound 9, 3-(2,4-difluorophenyl)-4-(3,5-dimethoxyphenyl)-5-(4-methoxyphenyl)-6-methylpyridazine], the pest or weed control at 200 ppm in assay [1] was 81%; in assay [2], 84%; in assay [3], 100%; in assay [4], 98%; in assay [5], 60%; in assay [6] it was 91%.
As to `COc1cc(OC)cc(-c2c(-c3cccc(F)c3F)nnc(C)c2-c2ccccc2)c1` [Compound 10], in assay [1], the “Test E rating (disease control, tomato early blight)” value (shortened to “Test E rating”) stood at 88%. In assay [2], the “Test A rating (disease control, wheat powdery mildew)” value (“Test A rating” for short) was 97%. For the same compound, the “Test C rating (disease control, wheat leaf blotch)” value (shortened to “Test C rating”) in assay [3] was 99%. The “Test F rating (disease control, tomato Botrytis)” value (shortened to “Test F rating”) in assay [4] turned out to be 95%. Also, the “Test D rating (disease control, wheat glume blotch)” value (“Test D rating” for short) in assay [5] was found to be 0%. Further, in assay [6], the “Test B rating (disease control, wheat leaf rust)” value (“Test B rating” for short) was 99%.
As to `COc1cc(OC)cc(-c2c(-c3ccc(F)cc3F)nnc(C)c2-c2ccccc2)c1` [Compound 5], the “Test E rating” value in assay [1] is listed as 0%. For the same compound, the “Test A rating” value in assay [2] came out at 91%. In assay [3], the “Test C rating” value came out at 94%. Besides, the “Test F rating” value in assay [4] is listed as 82%. Also, the “Test D rating” value in assay [5] is reported as 0%. The “Test B rating” value in assay [6] is recorded as 86%.
Regarding `COc1cc(OC)cc(-c2c(-c3ccccc3F)nnc(C)c2-c2c(F)cc(OCCCN(C)C)cc2F)c1` [Compound 29, 3-[4-[5-(3,5-dimethoxyphenyl)-6-(2-fluorophenyl)-3-methyl-4-pyridazinyl]-3,5-difluorophenoxy]-N,N-dimethyl-1-propanamine], the pest or weed control at 200 ppm in assay [1] turned out to be 99%; in assay [2], 92%; in assay [3], 98%; in assay [4], 99%; in assay [5], 92%; in assay [6], 100%.
On to `Cc1nnc(-c2ccccc2F)c(-c2ccc(Cl)cc2)c1-c1c(F)cc(F)cc1F` [Compound 23], for which the “Test E rating” value in assay [1] is recorded as 96%. For the same compound, in assay [2], the “Test A rating” value stood at 99%. Moreover, the “Test C rating” value in assay [3] is listed as 97%. Besides, in assay [4], the “Test F rating” value was found to be 86%. Also, the “Test D rating” value in assay [5] is listed as 0%. Besides, the “Test B rating” value in assay [6] came out at 99%.
As to `COc1cncc(-c2c(-c3ccccc3F)nnc(Cl)c2-c2c(F)cc(F)cc2F)c1` [Compound 44, 3-chloro-6-(2-fluorophenyl)-5-(5-methoxy-3-pyridinyl)-4-(2,4,6-trifluorophenyl)pyridazine], the pest or weed control at 40 ppm in assay [1] worked out at 100%; in assay [2], 100%; in assay [3], 99%; in assay [4], 100%; in assay [5], 100%; in assay [6], 99%.
`C=C(C)c1nnc(C)c(-c2ccc(OC)cc2)c1-c1cc(OC)cc(OC)c1` [Compound 19]: in assay [1], the “Test E rating” value stood at 100%. Further, the “Test A rating” value in assay [2] is 61%. In addition, the “Test C rating” value in assay [3] was 98%. The “Test F rating” value in assay [4] worked out at 98%. The “Test D rating” value in assay [5] amounted to 0%. Further, the “Test B rating” value in assay [6] is recorded as 98%.
Regarding `COc1ccc(-c2c(C)nnc(-c3ccccc3F)c2-c2cc(OC)cc(OC)c2)cc1` [Compound 8, 4-(3,5-dimethoxyphenyl)-3-(2-fluorophenyl)-5-(4-methoxyphenyl)-6-methylpyridazine], the pest or weed control at 200 ppm came to 99% in assay [1]; 97% in assay [2]; 100% in assay [3]; 98% in assay [4]; 95% in assay [5]; 100% in assay [6].
`COc1cc(OC)cc(-c2c(-c3ccccc3F)nnc(C)c2-c2c(F)cc(OC)cc2F)c1` [Compound 28, 4-(2,6-difluoro-4-methoxyphenyl)-5-(3,5-dimethoxyphenyl)-6-(2-fluorophenyl)-3-methylpyridazine]: the pest or weed control at 40 ppm in assay [1] was found to be 100%; in assay [2] it was 85%; in assay [3], 97%; in assay [4], 100%; in assay [5] it was 100%; in assay [6], 100%.
In the case of `COc1cc(OC)cc(-c2c(-c3ccccc3)nnc(Cl)c2-c2c(F)cc(F)cc2F)c1` [Compound 34], the “Test E rating” value in assay [1] is listed as 99%. In addition, in assay [2], the “Test A rating” value turned out to be 99%. The “Test C rating” value in assay [3] came to 100%. In assay [4], the “Test F rating” value came to 100%. For the same compound, in assay [5], the “Test D rating” value worked out at 93%. Further, the “Test B rating” value in assay [6] amounted to 100%.
For the compound `COc1cc(OC)cc(-c2c(-c3ccc(F)cc3)nnc(C)c2-c2ccccc2)c1` [Compound 11], in assay [1], the “Test E rating” value worked out at 0%. Besides, the “Test A rating” value in assay [2] came out at 93%. For the same compound, the “Test C rating” value in assay [3] is 70%. Besides, the “Test F rating” value in assay [4] was 0%. The “Test D rating” value in assay [5] is recorded as 0%. In addition, the “Test B rating” value in assay [6] was 68%.
